Laboratory results as given in patent US7175829B2, “Contrast-enhanced diagnostic imaging method for monitoring interventional therapies” (Epix Pharmaceuticals, Inc., priority 1997, dated 2007).

Assays:
[1] = molecular target: T1, human serum albumin (HSA) (Homo sapiens, UniProt P02768); experiment: Relaxivity R1 at 20 MHz during thermal denaturation of 4.5% HSA solutions; format: physicochemical; conditions: for R1: 20 MHz, 4.5% HSA solution; for R1 / net loss in R1 after denatured samples cooled to physiological temperature / loss in observed R1 during denaturation of the HSA: 0.3 mM Gd-DTPA, 0.1 mM MS-325; for net loss in R1 after denatured samples cooled to physiological temperature: denatured samples cooled to 37° C.; for loss in observed R1 during denaturation of the HSA: from immediately before denaturation (56.2° C.) to immediately after denaturation (85° C.)
T1 sequence (P02768 25-609): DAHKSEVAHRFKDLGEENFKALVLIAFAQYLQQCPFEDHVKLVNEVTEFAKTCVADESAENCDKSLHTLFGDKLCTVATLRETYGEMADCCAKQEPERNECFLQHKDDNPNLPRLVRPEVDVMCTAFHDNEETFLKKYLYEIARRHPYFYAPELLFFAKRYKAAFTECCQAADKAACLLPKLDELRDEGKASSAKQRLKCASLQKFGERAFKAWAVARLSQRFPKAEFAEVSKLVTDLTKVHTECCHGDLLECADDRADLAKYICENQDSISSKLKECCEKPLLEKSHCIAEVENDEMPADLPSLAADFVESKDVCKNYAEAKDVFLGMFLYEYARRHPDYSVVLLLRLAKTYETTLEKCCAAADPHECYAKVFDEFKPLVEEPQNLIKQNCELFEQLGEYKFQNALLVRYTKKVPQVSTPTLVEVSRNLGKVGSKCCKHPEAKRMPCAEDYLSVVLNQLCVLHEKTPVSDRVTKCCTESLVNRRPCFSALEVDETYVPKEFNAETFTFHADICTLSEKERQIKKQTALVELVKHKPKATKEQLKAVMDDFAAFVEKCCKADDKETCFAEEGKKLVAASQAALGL
Experimental: (§1) In these examples, the longitudinal relaxivities (R1, mM^−1 sec^−1) were monitored and obtained at 20 MHz by determining the relaxation rate (1/T1) of water protons in phosphate buffered saline (PBS, 150 mM NaCl, 10 mM phosphate, pH=7.4), in PBS solutions containing 4.5 wt % HSA, or in gels containing 4.5 wt % HSA and 1% Agar. The dependence of temperature on relaxivity (R1) was observed by varying the temperature of the samples with a circulating water bath and monitoring sample temperature with a thermocouple.
(§2) The following three samples were prepared in solutions of 4.5% HSA: (1) a control sample without a contrast agent; (2) a comparative sample with Gd-DTPA; and (3) a sample with MS-325. The samples with Gd-DTPA and MS-325 were prepared by adding an aqueous formulation (pH=7) comprising either Gd-DTPA or MS-325 to the 4.5% HSA solution.
The three samples were then used to monitor the thermal denaturation of the 4.5% HSA solutions. […] Each sample was then removed from the NMR and heated at 85° C. for 15 minutes to induce thermal denaturation of the HSA. Subsequently, the sample was returned to the NMR and T1 data was collected at this higher temperature.

[2] = molecular target: T1, human serum albumin (HSA); experiment: T1-weighted MRI at 1.0 Tesla of agar phantoms containing 4.5% HSA during thermal denaturation; format: physicochemical; conditions: for % Loss ROI: 1% agar, 4.5% HSA; for % Loss ROI / loss in signal intensity after denaturation and cooling / loss of signal intensity on thermal denaturation: 0.3 mM Gd-DTPA, 0.1 mM MS-325; for loss in signal intensity after denaturation and cooling: denatured phantoms cooled to 37° C.; for loss of signal intensity on thermal denaturation: phantoms heated above 50–60° C.
Experimental: The following samples were prepared in 1% agar gels containing 4.5% HSA: (1) a control sample without a contrast agent; (2) a comparative sample with Gd-DTPA; and (3) a sample with MS-325. The contrast agents were added in an amount sufficient such that the concentration of Gd-DTPA and MS-325 were 0.3 mM Gd-DTPA and 0.1 mM MS-325, respectively. Such agar gels containing 4.5% HSA are referred to as “phantoms”.
Initial T1-weighted MRI scans (FISP-3D, TR=15, TE=4, alpha=30) at 1.0 Tesla of the agar phantoms were then obtained at a temperature of about 25° C.
The phantoms were then heated in a circulating water bath with additional T1-weighted MRI scans obtained over time.

[3] = molecular target: T1, human serum albumin (HSA); experiment: Relaxivity R1 at 20 MHz during ethanol denaturation of 4.5% HSA solutions; format: physicochemical; conditions: for decrease/change in observed relaxivity during ethanol ablation: 4.5% HSA solutions, 0.31 mM Gd-DTPA, 0.08 mM MS-325, 37° C.; for R1 0.31 mM Gd-DTPA / R1 0.08 mM MS-325: 4.5% HSA, 37° C.
Experimental: as §1, §2
Absolute ethanol was then titrated to each of the samples. T1 data (and thus R1 data (=1/T1)) was collected at 20 MHz and 37° C. after each addition of ethanol.

[4] = Rat plasma pharmacokinetic experiment (blood retention, AUC-conc.); format: in vivo; conditions: two rats, tail vein injection of 0.1 mmol/kg Gd^153-labeled Gd-DTPA
From the text: The incorporation into a contrast agent of this invention of a BHEM results in prolonged blood retention of the agent. […] Blood retention (as measured by AUC-conc) can be evaluated experimentally by administration of a contrast agent to rats, rabbits, or higher mammals. It has been observed that blood half-life extension is greater in rabbits and higher mammals than in rats. In this application, blood half-life data, as measured by AUC-conc., represents experimentation in rats.
For example, the average plasma concentrations observed after tail vein injection of 0.1 mmol/kg of Gd^153-labeled Gd-DTPA in two rats is shown in FIG. 1.

[5] = tested on: alpha 1-acid glycoprotein (AAG); conditions: binding to alpha 1-acid glycoprotein; cited from earlier work
[6] = 85.0 °C, after heating at 85° C. for 15 minutes (HSA denatured)
[7] = 120 min, 35.5 °C (cooled after denaturation), 1.0 Tesla

SMILES: O=C([O-])CN(CCN(CC(=O)[O-])CC(=O)O)CCN(CC(=O)[O-])CC(=O)O.[Gd+3] [Gd-DTPA, reference compound]
- R1 ([1]; 7.3 °C): 9.4556 mM⁻¹ s⁻¹
- R1 ([1]; 11.7 °C): 8.8125 mM⁻¹ s⁻¹
- R1 ([1]; 16.2 °C): 8.0690 mM⁻¹ s⁻¹
- R1 ([1]; 20.6 °C): 7.4182 mM⁻¹ s⁻¹
- R1 ([1]; 25.0 °C): 6.7426 mM⁻¹ s⁻¹
- R1 ([1]; 29.5 °C): 6.2117 mM⁻¹ s⁻¹
- R1 ([1]; 33.9 °C): 5.7089 mM⁻¹ s⁻¹
- R1 ([1]; 38.4 °C): 5.2984 mM⁻¹ s⁻¹
- R1 ([1]; 42.8 °C): 4.8917 mM⁻¹ s⁻¹
- R1 ([1]; 47.3 °C): 4.5992 mM⁻¹ s⁻¹
- R1 ([1]; 51.7 °C): 4.3083 mM⁻¹ s⁻¹
- R1 ([1]; 56.2 °C): 4.0592 mM⁻¹ s⁻¹
- R1 ([1]; 60.6 °C): 3.8806 mM⁻¹ s⁻¹
- R1 [1, 6]: 4.2102 mM⁻¹ s⁻¹
- net loss in R1 after denatured samples cooled to physiological temperature [1]: 0.5 mM^−1 sec^−1
- loss in observed R1 during denaturation of the HSA [1]: 0.1 mM⁻¹ s⁻¹
- binding to native or denatured HSA ([1]; inferred from R1 change during thermal denaturation): does not bind to either native or denatured HSA
- % Loss ROI ([2]; 0 min, 25.3 °C, 1.0 Tesla): −0.2456%
- % Loss ROI ([2]; 10 min, 29.6 °C, 1.0 Tesla): −5.1875%
- % Loss ROI ([2]; 20 min, 38.3 °C, 1.0 Tesla): −12.806%
- % Loss ROI ([2]; 30 min, 45.0 °C, 1.0 Tesla): −18.985%
- % Loss ROI ([2]; 40 min, 53.0 °C, 1.0 Tesla): −30.964%
- % Loss ROI ([2]; 50 min, 64.7 °C, 1.0 Tesla): −43.833%
- % Loss ROI ([2]; 60 min, 72.8 °C, 1.0 Tesla): −46.086%
- % Loss ROI ([2]; 70 min, 87.1 °C, 1.0 Tesla): −47.529%
- % Loss ROI [2, 7]: −10.190%
- loss in signal intensity after denaturation and cooling [2]: 10%
- loss of signal intensity on thermal denaturation [2]: only a modest change
- decrease/change in observed relaxivity during ethanol ablation [3]: 0.3 mM⁻¹ s⁻¹
- R1 0.31 mM Gd-DTPA ([3]; ethanol 0.0 %): 4.1737 mM⁻¹ s⁻¹
- R1 0.31 mM Gd-DTPA ([3]; ethanol 16.1 %): 4.7191 mM⁻¹ s⁻¹
- R1 0.31 mM Gd-DTPA ([3]; ethanol 27.8 %): 5.0021 mM⁻¹ s⁻¹
- R1 0.31 mM Gd-DTPA ([3]; ethanol 36.6 %): 4.9347 mM⁻¹ s⁻¹
- R1 0.31 mM Gd-DTPA ([3]; ethanol 43.5 %): 4.7997 mM⁻¹ s⁻¹
- R1 0.31 mM Gd-DTPA ([3]; ethanol 49.0 %): 4.4623 mM⁻¹ s⁻¹
- AUC-conc. from 0 to 10 minutes [4]: 3.5 mM·min

SMILES: O=C(O)CN(CCN(CC(=O)O)CC(COP(=O)(O)OC1CCC(c2ccccc2)(c2ccccc2)CC1)N(CC(=O)O)CC(=O)O)CC(=O)O (stereo not drawn) [MS-325]
- R1 ([1]; 7.3 °C): 31.2 mM⁻¹ s⁻¹
- R1 ([1]; 11.7 °C): 33.4 mM⁻¹ s⁻¹
- R1 ([1]; 16.2 °C): 36.0 mM⁻¹ s⁻¹
- R1 ([1]; 20.6 °C): 38.6 mM⁻¹ s⁻¹
- R1 ([1]; 25.0 °C): 40.6 mM⁻¹ s⁻¹
- R1 ([1]; 29.5 °C): 42.0 mM⁻¹ s⁻¹
- R1 ([1]; 33.9 °C): 42.8 mM⁻¹ s⁻¹
- R1 ([1]; 38.4 °C): 42.4 mM⁻¹ s⁻¹
- R1 ([1]; 42.8 °C): 42.3 mM⁻¹ s⁻¹
- R1 ([1]; 47.3 °C): 41.3 mM⁻¹ s⁻¹
- R1 ([1]; 51.7 °C): 39.5 mM⁻¹ s⁻¹
- R1 ([1]; 56.2 °C): 37.5 mM⁻¹ s⁻¹
- R1 ([1]; 60.6 °C): 33.3 mM⁻¹ s⁻¹
- R1 [1, 6]: 10.8 mM⁻¹ s⁻¹
- net loss in R1 after denatured samples cooled to physiological temperature [1]: 25 mM^−1 sec^−1
- loss in observed R1 during denaturation of the HSA [1]: 26.7 mM⁻¹ s⁻¹
- % Loss ROI ([2]; 0 min, 25.3 °C, 1.0 Tesla): 0.0000%
- % Loss ROI ([2]; 10 min, 29.6 °C, 1.0 Tesla): −4.4755%
- % Loss ROI ([2]; 20 min, 38.3 °C, 1.0 Tesla): −6.4144%
- % Loss ROI ([2]; 30 min, 45.0 °C, 1.0 Tesla): −11.241%
- % Loss ROI ([2]; 40 min, 53.0 °C, 1.0 Tesla): −26.153%
- % Loss ROI ([2]; 50 min, 64.7 °C, 1.0 Tesla): −49.262%
- % Loss ROI ([2]; 60 min, 72.8 °C, 1.0 Tesla): −69.499%
- % Loss ROI ([2]; 70 min, 87.1 °C, 1.0 Tesla): −76.469%
- % Loss ROI [2, 7]: −31.869%
- brightness of phantoms in initial T1-weighted MRI scans ([2]; about 25° C., 1.0 Tesla, versus phantoms with Gd-DTPA or 4.5% HSA alone): brighter
- loss in signal intensity after denaturation and cooling [2]: 32%
- loss of signal intensity on thermal denaturation [2]: 76%
- decrease/change in observed relaxivity during ethanol ablation [3]: 33 mM⁻¹ s⁻¹
- R1 0.08 mM MS-325 ([3]; ethanol 0.0 %): 42.216 mM⁻¹ s⁻¹
- R1 0.08 mM MS-325 ([3]; ethanol 0.9 %): 40.848 mM⁻¹ s⁻¹
- R1 0.08 mM MS-325 ([3]; ethanol 1.9 %): 39.541 mM⁻¹ s⁻¹
- R1 0.08 mM MS-325 ([3]; ethanol 2.8 %): 38.423 mM⁻¹ s⁻¹
- R1 0.08 mM MS-325 ([3]; ethanol 3.7 %): 37.064 mM⁻¹ s⁻¹
- R1 0.08 mM MS-325 ([3]; ethanol 4.5 %): 36.375 mM⁻¹ s⁻¹
- R1 0.08 mM MS-325 ([3]; ethanol 5.4 %): 35.234 mM⁻¹ s⁻¹
- R1 0.08 mM MS-325 ([3]; ethanol 6.2 %): 34.576 mM⁻¹ s⁻¹
- R1 0.08 mM MS-325 ([3]; ethanol 7.1 %): 33.895 mM⁻¹ s⁻¹
- R1 0.08 mM MS-325 ([3]; ethanol 7.9 %): 33.099 mM⁻¹ s⁻¹
- R1 0.08 mM MS-325 ([3]; ethanol 8.7 %): 32.224 mM⁻¹ s⁻¹
- R1 0.08 mM MS-325 ([3]; ethanol 10.2 %): 31.689 mM⁻¹ s⁻¹
- R1 0.08 mM MS-325 ([3]; ethanol 11.7 %): 30.403 mM⁻¹ s⁻¹
- R1 0.08 mM MS-325 ([3]; ethanol 16.4 %): 26.939 mM⁻¹ s⁻¹
- R1 0.08 mM MS-325 ([3]; ethanol 22.8 %): 21.456 mM⁻¹ s⁻¹
- R1 0.08 mM MS-325 ([3]; ethanol 28.3 %): 17.428 mM⁻¹ s⁻¹
- R1 0.08 mM MS-325 ([3]; ethanol 33.1 %): 14.082 mM⁻¹ s⁻¹
- R1 0.08 mM MS-325 ([3]; ethanol 37.3 %): 11.187 mM⁻¹ s⁻¹
- R1 0.08 mM MS-325 ([3]; ethanol 41.0 %): 9.6943 mM⁻¹ s⁻¹
- R1 0.08 mM MS-325 ([3]; ethanol 44.2 %): 8.9506 mM⁻¹ s⁻¹
- R1 0.08 mM MS-325 ([3]; ethanol 47.2 %): 8.7970 mM⁻¹ s⁻¹

SMILES: CN(C)CCCN1c2ccccc2Sc2ccc(Cl)cc21 [chloropromazine]
- Ka [5]: 35.4×10^5
